Results published in patent US7498406B2, “Substantially cell membrane impermeable compound and use thereof” (priority 1999, dated 2009).

Experiments:
Lewis lung tumours = test: Tumour growth in mice, subcutaneous administration; format: in vivo, C57Bl6/J mice; settings: 10 mg per kg per day; for inhibition of the rate of Lewis lung tumour growth: subcutaneous
Method: FIG. 25. Inhibition of human fibrosarcoma and murine Lewis lung tumour growth following systemic administration of GSAO. HT1080 or Lewis lung tumours were established in the proximal midline of female 7 to 9 week old SCID or C57Bl6/J mice, respectively. When the tumours were ˜0.1 cm^3 in volume the mice were randomised into two groups (n=5) and treated with either GSAA or GSAO at a dose of 10 mg per kg per day in 0.2 mL of PBS containing 100 mM glycine. The compounds were administered subcutaneously at a site distant from the tumour. Tumour volume and animal weight was measured every 3 days. The GSAO/GSAA HT1080 tumour volume ratio at day 17 of treatment was 0.29 (part A). The GSAO/GSAA Lewis lung tumour volume ratio at day 12 of treatment was 0.29 (part B). The data points and errors represent the mean and SE of the tumour volumes.
Female 7 to 9 week old SCID or C57Bl6/J mice were used (Massachusetts General Hospital, Boston, Mass.). Mice were held in groups of 3 to 5 at a 12 hour day and night cycle and were fed with animal chow and water ad libidum. SCID mice were anaesthetised by inhalation of isoflurane, the dorsal skin shaved and cleaned with ethanol, and a suspension of 2.5×10^6 BxPC-3 or HT1080 cells in 0.2 mL of DMEM was injected subcutaneously in the proximal midline. C57Bl6/J mice with Lewis lung carcinomas of 0.6-1.2 cm^3 volumes were sacrificed and the skin overlying the tumour was cleaned with betadine and ethanol. Tumour tissue was excised under aseptic conditions and a suspension of tumour cells in 0.9% saline was made by passage of tumour tissue through a sieve and a series of sequentially smaller 22- to 30-gauge hypodermic needles. C57Bl6/J mice were anaesthetised and prepared as for SCID mice and a suspension of Lewis lung carcinoma cells in 0.2 mL of saline was injected subcutaneously in the proximal midline. […] The tumours were measured in two diameters and tumour volume was calculated using the relationship, tumour volume=a×b^2×0.52, where a is the longest and b the shortest diameters in cm. […] Tumour volume and animal weight was measured every 3 days. […]

BCE = test: Proliferation of cultured cells, 72 hr; format: cell-based, bovine; settings: for IC50: 72 hr
Method: FIG. 18. Inhibition of proliferation and reduction in viability of BCE cells by GSAO. 15,000 (part A and B) or 50,000 (part C and D) BCE cells per well were seeded into gelatinised 24-well culture plates and allowed to attach for 24 hr (part A, B and D) or 72 hr (part C). The media was then replaced with DMEM containing 5% BCS and 0 to 1 mM GSAO or GSAA and either 1 ng per mL FGF-2 (part A) or 10 ng per mL VEGF (part B). In part D, the media was replaced with DMEM containing 5% BCS and 1 ng per mL FGF-2 and either 10 μM GSAO or GSAA. In part C, the media was replaced with DMEM containing 5% BCS and 0 to 1 mM GSAO or GSAA. Cells were cultured for 72 hr in parts A, B and C or for discrete times up to 48 hr in part D and then dispersed and counted. The dotted line in parts A, B and C indicate the cell number in control wells containing DMEM and 5% BCS which represented no to limited proliferation. The dotted line in part D represents no change in cell number over the 48 hr. The data points and errors represent the mean and range of duplicate wells.
BCE (Folkman et al. 1979), BAE, BxPC-3 (ATCC, Bethesda, Md.), HT1080 (Jiang et al., 1999), 3T3 (ATCC, Bethesda, Md.) and BVSM (Hogg et al., 1997) cells were harvested and cultured as indicated. Cells (0.5 mL of 30,000 or 100,000 cells per mL) were seeded into gelatinized 24-well culture plates (Corning Costar, Corning, N.Y.) in Dulbecco's Modified Eagle's Medium (DMEM, JHR Bioscience, Lenexa, Kans.) containing 10% fetal calf serum (FCS, Intergen Comp., Purchase, N.Y.) and 1% Glutamine Pen-Strep (GPS, Irvine Scientific, Santa Ana, Va.) and allowed to attach for 24 hr in 10% CO2 at 37° C. […] Cells were cultured for 0 to 72 hr in 10% CO2 at 37° C. then dispersed in trypsin/EDTA (GibcoBRL, Granc Island, N.Y.), resuspended in Coulter balanced electrolyte solution and counted with a Z1 Coulter counter (Coulter Corp., Miami, Fla.) in all experiments there were two control wells containing DMEM with 1% GPS and either 5% BCS for BCE cells, 2% BCS for BAE and BVSM cells, or 2% FCS for BxPC-3, HT1080 and 3T3 cells. […]

BxPc3 = test: Proliferation of cultured cells, 72 hr; format: cell-based, human; settings: 5% FCS, 0 to 1 mM
Method: (§1) FIG. 19. Effect of GSAO on proliferation of non-endothelial cells. 15,000 BxPC-3 (part A), HT1080 (part B), 3T3 (part C) or BVSM (part D) cells per well were seeded into gelatinised 24-well culture plates and allowed to attach for 24 hr. The media was then replaced with DMEM containing 0 to 1 mM GSAO or GSAA and either 5% BCS (part D) or 5% FCS (parts A, B and C). Cells were cultured for 72 hr and then dispersed and counted. The dotted lines indicate the cell number in control wells containing DMEM and 2% BCS (part D) or 2% FCS (parts A, B and C) which represented no to limited proliferation. The data points and errors represent the mean and range of duplicate wells.
(§2) BCE (Folkman et al. 1979), BAE, BxPC-3 (ATCC, Bethesda, Md.), HT1080 (Jiang et al., 1999), 3T3 (ATCC, Bethesda, Md.) and BVSM (Hogg et al., 1997) cells were harvested and cultured as indicated. Cells (0.5 mL of 30,000 or 100,000 cells per mL) were seeded into gelatinized 24-well culture plates (Corning Costar, Corning, N.Y.) in Dulbecco's Modified Eagle's Medium (DMEM, JHR Bioscience, Lenexa, Kans.) containing 10% fetal calf serum (FCS, Intergen Comp., Purchase, N.Y.) and 1% Glutamine Pen-Strep (GPS, Irvine Scientific, Santa Ana, Va.) and allowed to attach for 24 hr in 10% CO2 at 37° C. The media was then replaced with DMEM and 1% GPS containing 0 to 1 mM GSAO or GSAA and either 5% bovine calf serum (BCS, HyClone, Logan, Utah) and 1 ng per mL FGF-2 (Genzyme, Cambridge, Mass.) or 5% BCS and 10 ng per mL VEGF (Genzyme, Cambridge, Mass.) for BCE cells, 5% or 10% BCS for BAE cells, 5% BCS for BVSM cells, and 5% FCS for BxPC-3, HT1080 and 3T3 cells. Cells were cultured for 0 to 72 hr in 10% CO2 at 37° C. then dispersed in trypsin/EDTA (GibcoBRL, Granc Island, N.Y.), resuspended in Coulter balanced electrolyte solution and counted with a Z1 Coulter counter (Coulter Corp., Miami, Fla.) in all experiments there were two control wells containing DMEM with 1% GPS and either 5% BCS for BCE cells, 2% BCS for BAE and BVSM cells, or 2% FCS for BxPC-3, HT1080 and 3T3 cells. These wells represented no to limited proliferation.

HT1080 = test: Proliferation of cultured cells, 72 hr; format: cell-based, human; settings: 5% FCS, 0 to 1 mM
Method: as §1, §2

| SMILES | inhibition of the rate of Lewis lung tumour growth (Lewis lung tumours) | effect on proliferation of BCE cells (BCE; highest concentration used, 1 mM) | Proliferation IC50 (BxPc3) | Proliferation IC50 (HT1080) | GSAO/GSAA Lewis lung tumour volume ratio (Lewis lung tumours; day 12 of treatment) | IC50 (BCE; 5% BCS + 1 ng/mL FGF-2) [nM] | IC50 (BCE; 5% BCS + 10 ng/mL VEGF) [nM] |
| --- | --- | --- | --- | --- | --- | --- | --- |
| N[C@@H](CCC(=O)N[C@@H](CSCC(=O)Nc1ccc([As](=O)(O)O)cc1)C(=O)NCC(=O)O)C(=O)O [GSAA, 4-(N-(S-glutathionylacetyl)amino)phenylarsonic acid, reference compound] | no effect | only a marginal effect on proliferation | no significant effect | no significant effect | – | – | – |
| NC(CCC(=O)NC(CSCC(=O)Nc1ccc([As]=O)cc1)C(=O)NCC(=O)O)C(=O)O (stereo not shown) [GSAO, 4-(N-(S-glutathionylacetyl)amino)-phenylarsenoxide] | ~70% | – | did not affect the proliferation | did not affect the proliferation | 0.29 | ~100 | ~50 |
